From patent publication US9359313B2, “Use of metformin in combination with a glucokinase activator and compositions comprising metformin and a glucokinase activator” (vTv Therapeutics LLC, priority 2010, dated 2016)

Assays:
diabetic ob/ob mice = assay: Treatment of diabetic ob/ob mice with UD1 and metformin: post-prandial glucose; format: in vivo; details: 75 mg/kg UD1, 100 mg/kg Met; for mean post-prandial glucose level / mean glucose level: n=10; for mean glucose level: time 0 hours (baseline)
Protocol: Before treatment, the mice were assigned to four groups based on baseline glucose levels and body weight (n=10 for each group). Each group of mice was dosed with one of the following: (1) a control substance; (2) 75 mg/kg UD1; (3) 100 mg/kg metformin (Met); or (4) 75 mg/kg UD1 and 100 mg/kg metformin (Met). Post-prandial glucose was measured at time points of 1, 3, 5, 7, and 9 hours following dosing.

[1] = Pharmacokinetic evaluation of three oral UD1 dosage forms in male beagle dogs; format: in vivo; details: 100 mg of UD1, fasted, mean of 3 dogs
Protocol: For all nine dogs, 100 mg of UD1 was administered orally. Each dog was dosed in a fasted state, where food was provided 4 hours following dosing. Blood samples were taken for pharmacokinetic (PK) evaluation at the following time intervals following dosing: 0.5, 1.0, 2.0, 4.0, 6.0, 8.0, 12.0, and 24.0 hours.

SMILES	change in glucose levels relative to control, AUC 0-9 hrs (diabetic ob/ob mice) [mg·h/dL]	mean post-prandial glucose level (diabetic ob/ob mice; 1 hour following dosing) [mg/dL]	mean post-prandial glucose level (diabetic ob/ob mice; 3 hours following dosing) [mg/dL]	mean post-prandial glucose level (diabetic ob/ob mice; 5 hours following dosing) [mg/dL]	mean post-prandial glucose level (diabetic ob/ob mice; 7 hours following dosing) [mg/dL]	mean post-prandial glucose level (diabetic ob/ob mice; 9 hours following dosing) [mg/dL]	mean glucose level (diabetic ob/ob mice) [mg/dL]	AUC0-∞ [1] [ng·h/mL]	Cmax [1] [ng/mL]
CCCO[C@H]1CC[C@H](N(C(=O)Nc2ncc(SCC(=O)O)s2)C2CCCCC2)CC1 [UD1, {2-[3-cyclohexyl-3-(trans-4-propoxy-cyclohexyl)-ureido]-thiazol-5-ylsulfanyl}-acetic acid]	-748	321	254	376	382	394	391		
CN(C)C(=N)NC(=N)N [Met, N,N-dimethylimidodicarbonimidic diamide, reference compound]	-39	357	334	459	501	484	389		
CCCO[C@H]1CC[C@H](N(C(=O)Nc2ncc(SCC(=O)O)s2)C2CCCCC2)CC1.CN(C)C(=N)NC(=N)N [Metformin Salt, 1,1-dimethylbiguanide salt of {2-[3-cyclohexyl-3-(trans-4-propoxy-cyclohexyl)-ureido]-thiazol-5-ylsulfanyl}-acetic acid]								15802	6985
